Source: patent publication US10845368B2, “Nanoparticles for mitochondrial trafficking of agents” (UNIVERSITY OF GEORGIA RESEARCH FOUNDATION, INC., priority 2012, dated 2020)

How the values were obtained:
[1] = tested on: HeLa cells; experiment: MTT cytotoxicity assay; type: cell-based, human
Excerpt: FIGS. 11A-C are bar graphs showing cytotoxicity profiles of targeted LND nanoparticles, nontargeted LND nanoparticles, free LND (A); targeted α-TOS nanoparticles, nontargeted α-TOS nanoparticles, free α-TOS in HeLa cells (B); and empty targeted nanoparticles, and empty nontargeted nanoparticles in HeLa cells (C).
The selectivity and efficiency of LND and α-TOS against cancer cells depend on their ability to target the mitochondria of cells. To evaluate the efficacy of our targeted nanoparticles in delivering LND and α-TOS, we performed MTT assays in HeLa cells. […] Preferential localization in the target organelle accounts for the enhanced cytotoxicity of both LND and α-TOS encapsulated in the targeted nanoparticles.

[2] = tested on: 3T3-L1 cells; details: 3T3-L1, 100 μM
Procedure: To examine whether encapsulation of 2,4-DNP in targeted nanoparticles can suppress the induced differentiation of 3T3-L1 preadipocytes at a low dosage that is insufficient to exert cytotoxicity, we continuously exposed 3T3-L1 cells to 1 μM, 4 μM, 25 μM, and 100 μM targeted 2,4-DNP nanoparticles (FIGS. 12A-D and 13) during the differentiation period for 7 d, and evaluated cell viability and intracellular lipid accumulation. Nontargeted 2,4-DNP nanoparticles and free 2,4-DNP were used as controls.

| Structure (SMILES) | IC50 [1] [nM] | cellular toxicity [2] |
| --- | --- | --- |
| Cc1c(C)c2c(c(C)c1OC(=O)CCC(=O)O)CC[C@@](C)(CCC[C@H](C)CCC[C@H](C)CCCC(C)C)O2 [free α-TOS, α-tocopheryl succinate] | 381 ± 5 |  |
| O=[N+]([O-])c1ccc(O)c([N+](=O)[O-])c1 [Free 2,4-DNP, 2,4-dinitrophenol] |  | demonstrated cellular toxicity |
